US20220088275A1, “HYDROGELS, METHODS OF MAKING, AND METHODS OF USE” (Convalesce Inc., priority 2019, published 2022)
Peptide text beside a SMILES is read from it.

How the values were obtained:
[1] = Hydrogel formation from laminin derived peptides; assay type: physicochemical; details: 1 mg peptide in 200 μL 20 mM phosphate buffer pH 7.4, NaCl 50 mM to 150 mM, 24 hours
Description: As an example of hydrogels based on self-aggregating peptides derived from non-amyloid proteins, laminin hydrogels were generated. Laminin was analyzed in silico to identify self-aggregating regions. After identification of such a region in the protein, its sequence was further modified to facilitate peptide self-assembly, and subsequently cross-beta sheet formation. Three peptides, L1-L3, were designed. The peptides were synthesized by a commercial vendor with 99% purity.
For forming the hydrogels, 1 mg peptide was mixed with 180 μL of 20 mM phosphate buffer, pH 7.4. The pH of this solution was raised to 10 by the gradual addition of 2N NaOH. NaCl was added to this solution in different quantities with a range from 50 mM to 150 mM final concentration. The pH of the solution was finally adjusted to 7.4 and the final volume of the solution was 200 μL. The solution was left undisturbed for 24 hours to facilitate the hydrogel formation.

in vitro = assay type: cell-based; details: human
Description: (§1) To determine the viability of cells within the hydrogels formed by L1 and L3, a Calcein-AM based toxicity assay was carried out. SHSY5Y cells were used for the toxicity assay. Cells were cultured in complete DMEM with 10% FBS, 1× Glutamax and 1% pen-strep antibiotic cocktail in a humidified incubator at 37° C. with 5% CO2. Cells cultured at 80% confluency in the culture vessel were used for the assay. SHSY5Y cells were washed with phosphate-buffered saline and treated with Accutase® to lift them of the culture vessel. Subsequently, it was neutralized with a double amount of complete media and centrifuged at 300 rpm for 5 minutes to obtain a cell pellet. Around 10,000 live cells (counted on a hemocytometer by Trypan blue exclusion) were added to 20 μL of each hydrogel and plated in a well of a 96 well polystyrene TC plate (with technical replicate=3). After 20 minutes, 100 μL complete media was added to each well. For control, a similar number of cells were added to a well without the hydrogel. 20 μL of phosphate buffer was added to each of the control wells. Cells were cultured for 24 hours before performing the Calcein-AM assay. Calcein-AM assay was carried out according to manufacturer's protocol. The viable cells were imaged with a wide-field fluorescence microscope and quantified.

SHSY5Y cells = test: in vitro; assay type: cell-based; details: incubated for 24 hours; FIG. 10
Description: as §1

hydrogel formation [1] | Structure (SMILES) | viability at 24 h (in vitro) | viability of SHSY5Y cells relative to control (in words) (SHSY5Y cells)
formed hydrogels | CC(C)C[C@H](NC(=O)[C@H](Cc1ccc(O)cc1)NC(=O)[C@H](Cc1ccccc1)NC(=O)[C@H](CC(C)C)NC(=O)[C@H](CC(C)C)NC(=O)OCC1c2ccccc2-c2ccccc21)C(=O)O [L1] (HELM PEPTIDE1{[O=C(OCC1c2ccccc2-c2ccccc21)[*:2]].L.L.F.Y.L}$$$$V2.0; C-terminus assumed) | 85% | high viability
formed hydrogels | CC(C)C[C@H](NC(=O)[C@H](Cc1ccc(O)cc1)NC(=O)[C@@H](NC(=O)[C@H](CC(C)C)NC(=O)[C@H](CC(C)C)NC(=O)OCC1c2ccccc2-c2ccccc21)C(C)C)C(=O)O [L3] (HELM PEPTIDE1{[O=C(OCC1c2ccccc2-c2ccccc21)[*:2]].L.L.V.Y.L}$$$$V2.0; C-terminus assumed) | 87% | high viability
